Reference: US10106544B2, “1,2-dihydro-3H-pyrrolo[1,2-C]imidazol-3-one derivatives and their use as antibacterial agents” (priority 2014, dated 2018)
≈ marks a conversion by molar mass, not a printed value. Where a name gives a salt, the structure may show the parent alone. Read-outs that look alike come from different tables or passages of the source.

Key:
Test in all cases: Bacterial growth minimal inhibitory concentration (microdilution, cation-adjusted Mueller-Hinton Broth)
Assay type in all cases: cell-based
K. pneumoniae A-651 = conditions: Klebsiella pneumoniae
Procedure, shortened: (§1)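 Broth microdilution in cation-adjusted Mueller-Hinton Broth per CLSI M7-A7, MIC in mg/L. K. pneumoniae A-651 is multiply resistant, including to quinolones. E. coli ATCC25922 and P. aeruginosa ATCC27853 are quinolone-sensitive.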

P. aeruginosa ATCC27853 = conditions: Pseudomonas aeruginosa
Procedure, shortened: as §1

E. coli ATCC25922 = conditions: Escherichia coli
Procedure, shortened: as §1

[1] = A651, multiply-resistant strain (in particular quinolone-resistant), read-out: MIC for K. Pneumoniae A-651
[2] = ATCC27853, quinolone-sensitive strain, read-out: MIC for P. aeruginosa ATCC27853
[3] = ATCC25922, quinolone-sensitive strain, read-out: MIC for E. coli ATCC25922

Row | SMILES | MIC (K. pneumoniae A-651; [1]) [µg/mL] | MIC (P. aeruginosa ATCC27853; [2]) [µg/mL] | MIC (E. coli ATCC25922; [3]) [µg/mL] | MIC (K. pneumoniae A-651; A651, read-out: MIC for K. Pneumoniae A-651) [µg/mL] | MIC (P. aeruginosa ATCC27853; ATCC27853, read-out: MIC for P. aeruginosa ATCC27853) [µg/mL] | MIC (E. coli ATCC25922; ATCC25922, read-out: MIC for E. coli ATCC25922) [µg/mL]
1 | C[C@@]1(C#CC#Cc2cc3n(c2)C(=O)N(CC[C@](C)(C(=O)NO)S(C)(=O)=O)C3)C[C@H]1CO [Example 36, (R)-N-hydroxy-4-(6-(((1R,2R)-2-(hydroxymethyl)-1-methylcyclopropyl)buta-1,3-diyn-1-yl)-3-oxo-1H-pyrrolo[1,2-c]imidazol-2(3H)-yl)-2-methyl-2-(methylsulfonyl)butanamide] | 0.25 (≈ 0.559 µM) | 0.5 (≈ 1.12 µM) | 0.125 (≈ 0.279 µM) | – | – | –
2 | C[C@@](CCN1Cc2cc(C#CC#CC3(N)CC3)cn2C1=O)(C(=O)NO)S(C)(=O)=O.Cl [Example 38, (R)-4-(6-((1-aminocyclopropyl)buta-1,3-diyn-1-yl)-3-oxo-1H-pyrrolo[1,2-c]imidazol-2(3H)-yl)-N-hydroxy-2-methyl-2-(methylsulfonyl)butanamide hydrochloride] | 0.25 | 1 | 0.25 | – | – | –
3 | C[C@@](CCN1Cc2cc(C#CC#CC3(N)COC3)cn2C1=O)(C(=O)NO)S(C)(=O)=O [Example 39, (R)-4-(6-((3-aminooxetan-3-yl)buta-1,3-diyn-1-yl)-3-oxo-1H-pyrrolo[1,2-c]imidazol-2(3H)-yl)-N-hydroxy-2-methyl-2-(methylsulfonyl)butanamide hydrochloride] | – | – | – | 4 | 4 | 2
4 | C[C@@](CCN1Cc2cc(C#Cc3ccc(C4(CO)CCC4)cc3)cn2C1=O)(C(=O)NO)S(C)(=O)=O [Example 40, (R)-N-hydroxy-4-(6-((4-(1-(hydroxymethyl)cyclobutyl)phenyl)ethynyl)-3-oxo-1H-pyrrolo[1,2-c]imidazol-2(3H)-yl)-2-methyl-2-(methylsulfonyl)butanamide] | 0.25 (≈ 0.5 µM) | 1 (≈ 2 µM) | ≤ 0.063 | – | – | –
5 | C[C@@](CCN1Cc2cc(-c3ccc(OCCO)cc3F)cn2C1=O)(C(=O)NO)S(C)(=O)=O [Example 41, (R)-4-(6-(2-fluoro-4-(2-hydroxyethoxy)phenyl)-3-oxo-1H-pyrrolo[1,2-c]imidazol-2(3H)-yl)-N-hydroxy-2-methyl-2-(methylsulfonyl)butanamide] | 2 (≈ 4.26 µM) | 4 (≈ 8.52 µM) | 1 (≈ 2.13 µM) | – | – | –
6 | C[C@@](CCN1Cc2cc(C#CC#CC3[C@@H](CO)[C@H]3CO)cn2C1=O)(C(=O)NO)S(C)(=O)=O (stereo partly drawn) [Example 42, (R)-4-(6-(((2R,3S)-2,3-bis(hydroxymethyl)cyclopropyl)buta-1,3-diyn-1-yl)-3-oxo-1H-pyrrolo[1,2-c]imidazol-2(3H)-yl)-N-hydroxy-2-methyl-2-(methylsulfonyl)butanamide] | 8 (≈ 17.3 µM) | 4 (≈ 8.63 µM) | 8 (≈ 17.3 µM) | – | – | –
7 | C[C@@](CCN1Cc2cc(-c3ccc(OC[C@H](O)CO)cc3F)cn2C1=O)(C(=O)NO)S(C)(=O)=O [Example 43, (R)-4-(6-(4-((R)-2,3-dihydroxypropoxy)-2-fluorophenyl)-3-oxo-1H-pyrrolo[1,2-c]imidazol-2(3H)-yl)-N-hydroxy-2-methyl-2-(methylsulfonyl)butanamide] | 16 (≈ 32 µM) | 8 (≈ 16 µM) | 8 (≈ 16 µM) | – | – | –
8 | C[C@@](CCN1Cc2cc(C#Cc3ccc(C(F)(F)CO)cc3)cn2C1=O)(C(=O)NO)S(C)(=O)=O [Example 44, (R)-4-(6-((4-(1,1-difluoro-2-hydroxyethyl)phenyl)ethynyl)-3-oxo-1H-pyrrolo[1,2-c]imidazol-2(3H)-yl)-N-hydroxy-2-methyl-2-(methylsulfonyl)butanamide] | 0.25 (≈ 0.505 µM) | 1 (≈ 2.02 µM) | ≤ 0.063 | – | – | –
9 | C[C@@](CCN1Cc2cc(C#Cc3ccc(C(=O)CO)cc3)cn2C1=O)(C(=O)NO)S(C)(=O)=O [Example 45, (R)-N-hydroxy-4-(6-((4-(2-hydroxyacetyl)phenyl)ethynyl)-3-oxo-1H-pyrrolo[1,2-c]imidazol-2(3H)-yl)-2-methyl-2-(methylsulfonyl)butanamide] | 1 (≈ 2.11 µM) | 4 (≈ 8.45 µM) | 0.25 (≈ 0.528 µM) | – | – | –
10 | CN(C)CC#CC#Cc1cc2n(c1)C(=O)N(CC[C@](C)(C(=O)NO)S(C)(=O)=O)C2 [Example 46, (R)-4-(6-(5-(dimethylamino)penta-1,3-diyn-1-yl)-3-oxo-1H-pyrrolo[1,2-c]imidazol-2(3H)-yl)-N-hydroxy-2-methyl-2-(methylsulfonyl)butanamide] | 2 (≈ 4.76 µM) | 4 (≈ 9.51 µM) | 1 (≈ 2.38 µM) | – | – | –
11 | COC(=O)c1ccc(-c2cc3n(c2)C(=O)N(CC[C@](C)(C(=O)NO)S(C)(=O)=O)C3)c(F)c1 [Example 47, methyl (R)-3-fluoro-4-(2-(4-(hydroxyamino)-3-methyl-3-(methylsulfonyl)-4-oxobutyl)-3-oxo-2,3-dihydro-1H-pyrrolo[1,2-c]imidazol-6-yl)benzoate] | 0.25 (≈ 0.535 µM) | 8 (≈ 17.1 µM) | ≤ 0.063 | – | – | –
12 | C[C@@](CCN1Cc2cc(-c3ccc(Cl)cc3F)cn2C1=O)(C(=O)NO)S(C)(=O)=O [Example 48, (R)-4-(6-(4-chloro-2-fluorophenyl)-3-oxo-1H-pyrrolo[1,2-c]imidazol-2(3H)-yl)-N-hydroxy-2-methyl-2-(methylsulfonyl)butanamide] | 0.25 (≈ 0.563 µM) | 1 (≈ 2.25 µM) | ≤ 0.063 | – | – | –
13 | CCOc1ccc(-c2cc3n(c2)C(=O)N(CC[C@](C)(C(=O)NO)S(C)(=O)=O)C3)c(Cl)c1 [Example 49, (R)-4-(6-(2-chloro-4-ethoxyphenyl)-3-oxo-1H-pyrrolo[1,2-c]imidazol-2(3H)-yl)-N-hydroxy-2-methyl-2-(methylsulfonyl)butanamide] | 0.125 (≈ 0.266 µM) | 4 (≈ 8.51 µM) | ≤ 0.063 | – | – | –
14 | COc1ccc(-c2cc3n(c2)C(=O)N(CC[C@](C)(C(=O)NO)S(C)(=O)=O)C3)c(Cl)c1 [Example 52, (R)-4-(6-(2-chloro-4-methoxyphenyl)-3-oxo-1H-pyrrolo[1,2-c]imidazol-2(3H)-yl)-N-hydroxy-2-methyl-2-(methylsulfonyl)butanamide] | ≤ 0.063 | 2 (≈ 4.39 µM) | ≤ 0.063 | – | – | –
15 | C[C@@](CCN1Cc2cc(-c3ccc(C(F)(F)F)cc3F)cn2C1=O)(C(=O)NO)S(C)(=O)=O [Example 53, (R)-4-(6-(2-fluoro-4-(trifluoromethyl)phenyl)-3-oxo-1H-pyrrolo[1,2-c]imidazol-2(3H)-yl)-N-hydroxy-2-methyl-2-(methylsulfonyl)butanamide] | 0.25 (≈ 0.524 µM) | 8 (≈ 16.8 µM) | 0.25 (≈ 0.524 µM) | – | – | –
16 | C[C@@](CCN1Cc2cc(-c3ccc(F)c(F)c3F)cn2C1=O)(C(=O)NO)S(C)(=O)=O [Example 54, (R)-N-hydroxy-2-methyl-2-(methylsulfonyl)-4-(3-oxo-6-(2,3,4-trifluorophenyl)-1H-pyrrolo[1,2-c]imidazol-2(3H)-yl)butanamide] | 1 (≈ 2.25 µM) | 1 (≈ 2.25 µM) | 0.125 (≈ 0.281 µM) | – | – | –
17 | COc1ccc(-c2cc3n(c2)C(=O)N(CC[C@](C)(C(=O)NO)S(C)(=O)=O)C3)c(F)c1F [Example 55, (R)-4-(6-(2,3-difluoro-4-methoxyphenyl)-3-oxo-1H-pyrrolo[1,2-c]imidazol-2(3H)-yl)-N-hydroxy-2-methyl-2-(methylsulfonyl)butanamide] | 1 (≈ 2.19 µM) | 4 (≈ 8.74 µM) | 0.125 (≈ 0.273 µM) | – | – | –
18 | C[C@@](CCN1Cc2cc(C#CC#CC3(CO)CCC3)cn2C1=O)(C(=O)NO)S(C)(=O)=O [Example 56, (R)-N-hydroxy-4-(6-((1-(hydroxymethyl)cyclobutyl)buta-1,3-diyn-1-yl)-3-oxo-1H-pyrrolo[1,2-c]imidazol-2(3H)-yl)-2-methyl-2-(methylsulfonyl)butanamide] | 1 (≈ 2.23 µM) | 2 (≈ 4.47 µM) | 0.25 (≈ 0.559 µM) | – | – | –
